Measured values: ChEMBL document CHEMBL5584238, “Psammaplin A analogues with modified disulfide bond targeting histone deacetylases: Synthesis and biological evaluation” (Eur J Med Chem, 2024)
Each block holds one compound with its values, some of them ahead of it. The source made the active and inactive calls. The rule behind the calls is not given here.

Tests used:
HCT-116 [1] = assay: Antiproliferative activity against human HCT-116 cells incubated for 48 hrs by MTT assay; format: functional, cell-based; settings: HCT-116, 48 h
[2] = target: T1, Class 1 histone deacetylase (Homo sapiens) (UniProt Q13547+O15379+Q92769+Q9BY41); assay: Inhibition of class 1 HDACs in human HCT-116 cells assessed as upregulation of acetylated alpha-H3 level at 1 uM incubated for 24 hrs by Western blotting analysis; format: cell-based
[3] = target: T2, Protein deacetylase HDAC6 (Homo sapiens) (UniProt Q9UBN7); assay: Inhibition of HDAC6 in human HCT-116 cells assessed as upregulation of acetylated alpha-tubulin level at 1 uM incubated for 24 hrs by Western blotting analysis; format: cell-based
T2 sequence (whole entry): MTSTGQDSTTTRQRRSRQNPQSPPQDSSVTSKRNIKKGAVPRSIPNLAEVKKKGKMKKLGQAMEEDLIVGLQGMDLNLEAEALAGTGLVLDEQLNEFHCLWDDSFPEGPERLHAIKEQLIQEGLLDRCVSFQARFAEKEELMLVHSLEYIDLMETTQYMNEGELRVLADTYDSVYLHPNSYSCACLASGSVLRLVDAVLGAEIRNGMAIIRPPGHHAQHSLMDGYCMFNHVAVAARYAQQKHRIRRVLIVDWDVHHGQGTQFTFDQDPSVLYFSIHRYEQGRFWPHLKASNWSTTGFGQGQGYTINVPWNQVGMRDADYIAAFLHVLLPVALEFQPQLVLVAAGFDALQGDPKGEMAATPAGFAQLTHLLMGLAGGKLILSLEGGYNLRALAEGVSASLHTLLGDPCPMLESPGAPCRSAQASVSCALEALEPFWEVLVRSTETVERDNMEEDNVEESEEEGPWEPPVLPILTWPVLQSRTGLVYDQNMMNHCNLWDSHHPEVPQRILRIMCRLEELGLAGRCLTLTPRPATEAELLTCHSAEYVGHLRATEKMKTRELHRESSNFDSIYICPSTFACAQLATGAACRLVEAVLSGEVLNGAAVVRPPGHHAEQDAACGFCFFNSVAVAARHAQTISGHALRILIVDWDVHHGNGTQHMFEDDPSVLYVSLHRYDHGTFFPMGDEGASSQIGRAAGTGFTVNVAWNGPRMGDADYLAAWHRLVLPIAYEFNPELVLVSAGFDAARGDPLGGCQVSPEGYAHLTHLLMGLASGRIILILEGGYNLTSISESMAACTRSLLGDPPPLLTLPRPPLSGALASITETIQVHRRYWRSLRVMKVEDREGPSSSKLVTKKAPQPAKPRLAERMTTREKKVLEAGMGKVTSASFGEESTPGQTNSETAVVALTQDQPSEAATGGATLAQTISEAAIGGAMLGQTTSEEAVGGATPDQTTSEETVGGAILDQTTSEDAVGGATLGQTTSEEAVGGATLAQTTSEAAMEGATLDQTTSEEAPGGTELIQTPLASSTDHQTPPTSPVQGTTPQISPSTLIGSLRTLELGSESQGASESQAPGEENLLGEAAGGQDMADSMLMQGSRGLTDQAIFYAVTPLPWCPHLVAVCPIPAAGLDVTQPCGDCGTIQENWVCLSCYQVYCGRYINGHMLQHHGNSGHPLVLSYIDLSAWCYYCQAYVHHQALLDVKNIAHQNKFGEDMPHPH

Histone deacetylase 1 = Histone deacetylase 1 (Homo sapiens, UniProt Q13547); assay: Inhibition of recombinant human HDAC1 using Boc-Lys(Ac)-AMC as substrate preincubated for 1 hr followed by substrate addition and measured after 2 hrs by microplate reader assay
HCT-116 [4] = assay: Induction of cell cycle arrest in human HCT-116 cells assessed as accumulation of cells at G1 phase at 1 uM after 24 hrs by PI staining based flow cytometry analysis (reference value: 37.9%); format: functional
HCT-116 [5] = assay: Induction of cell cycle arrest in human HCT-116 cells assessed as accumulation of cells at S phase at 1 uM after 24 hrs by PI staining based flow cytometry analysis (reference value: 52.8%); format: functional
HCT-116 [6] = assay: Induction of cell cycle arrest in human HCT-116 cells assessed as accumulation of cells at G2/M phase at 1 uM after 24 hrs by PI staining based flow cytometry analysis (reference value: 9.3%); format: functional
HCT-116 [7] = assay: Induction of cell cycle arrest in human HCT-116 cells assessed as accumulation of cells at G1 phase at 2 uM after 24 hrs by PI staining based flow cytometry analysis (reference value: 37.9%); format: functional
HCT-116 [8] = assay: Induction of cell cycle arrest in human HCT-116 cells assessed as accumulation of cells at S phase at 2 uM after 24 hrs by PI staining based flow cytometry analysis (reference value: 52.8%); format: functional
HCT-116 [9] = assay: Induction of cell cycle arrest in human HCT-116 cells assessed as accumulation of cells at G2/M phase at 2 uM after 24 hrs by PI staining based flow cytometry analysis (reference value: 9.3%); format: functional
HCT-116 [10] = assay: Induction of apoptosis in human HCT-116 cells assessed as viable cells at 2 uM incubated for 24 hrs by Annexin V-FITC/PI staining based flow cytometry analysis ( Rvb = 92.2%); format: functional; settings: read-out: Activity
HCT-116 [11] = assay: Induction of apoptosis in human HCT-116 cells assessed as early apoptotic cells at 2 uM incubated for 24 hrs by Annexin V-FITC/PI staining based flow cytometry analysis ( Rvb = 2.36%); format: functional
HCT-116 [12] = assay: Induction of apoptosis in human HCT-116 cells assessed as late apoptotic cells at 2 uM incubated for 24 hrs by Annexin V-FITC/PI staining based flow cytometry analysis ( Rvb = 5.32%); format: functional
HCT-116 [13] = assay: Induction of apoptosis in human HCT-116 cells assessed as necrotic cells at 2 uM incubated for 24 hrs by Annexin V-FITC/PI staining based flow cytometry analysis ( Rvb = 0.24%); format: functional
HCT-116 [14] = assay: Induction of apoptosis in human HCT-116 cells assessed as viable cells at 4 uM incubated for 24 hrs by Annexin V-FITC/PI staining based flow cytometry analysis ( Rvb = 92.2%); format: functional; settings: read-out: Activity
HCT-116 [15] = assay: Induction of apoptosis in human HCT-116 cells assessed as early apoptotic cells at 4 uM incubated for 24 hrs by Annexin V-FITC/PI staining based flow cytometry analysis ( Rvb = 2.36%); format: functional
HCT-116 [16] = assay: Induction of apoptosis in human HCT-116 cells assessed as late apoptotic cells at 4 uM incubated for 24 hrs by Annexin V-FITC/PI staining based flow cytometry analysis ( Rvb = 5.32%); format: functional
HCT-116 [17] = assay: Induction of apoptosis in human HCT-116 cells assessed as necrotic cells at 4 uM incubated for 24 hrs by Annexin V-FITC/PI staining based flow cytometry analysis ( Rvb = 0.24%); format: functional
HCT-116 [18] = assay: Antitumor activity against human HCT-116 cells xenografted with BALB/c nude mouse assessed as tumor growth inhibition at 10 mg/kg, ip administered every 2 days for 26 days; format: functional; settings: HCT-116, 624 h, time 26 day, read-out: TGI
EBC-1 = assay: Antiproliferative activity against human EBC-1 cells incubated for 48 hrs by MTT assay; format: functional, cell-based; settings: EBC-1, 48 h
NCI-H1581 = assay: Antiproliferative activity against human NCI-H1581 cells incubated for 48 hrs by MTT assay; format: functional, cell-based; settings: NCI-H1581, 48 h
[19] = target: T1, Class 1 histone deacetylase (Homo sapiens); assay: Inhibition of class 1 HDACs in human HCT-116 cells assessed as upregulation of acetylated alpha-H3 level incubated for 24 hrs by Western blotting analysis; format: cell-based; settings: dose 0.5-4 µM
[20] = target: T2, Protein deacetylase HDAC6 (Homo sapiens); assay: Inhibition of HDAC6 in human HCT-116 cells assessed as upregulation of acetylated alpha-tubulin level incubated for 24 hrs by Western blotting analysis; format: cell-based; settings: dose 0.5-4 µM
HCT-116 [21] = assay: Induction of cell cycle arrest in human HCT-116 cells assessed as accumulation of cells at G1 phase at 0.1 uM after 24 hrs by PI staining based flow cytometry analysis (reference value: 37.9%); format: functional
HCT-116 [22] = assay: Induction of cell cycle arrest in human HCT-116 cells assessed as accumulation of cells at S phase at 0.1 uM after 24 hrs by PI staining based flow cytometry analysis (reference value: 52.8%); format: functional
HCT-116 [23] = assay: Induction of cell cycle arrest in human HCT-116 cells assessed as accumulation of cells at G2/M phase at 0.1 uM after 24 hrs by PI staining based flow cytometry analysis (reference value: 9.3%); format: functional
HCT-116 [24] = assay: Induction of cell cycle arrest in human HCT-116 cells assessed as accumulation of cells at G1 phase at 0.2 uM after 24 hrs by PI staining based flow cytometry analysis (reference value: 37.9%); format: functional
HCT-116 [25] = assay: Induction of cell cycle arrest in human HCT-116 cells assessed as accumulation of cells at S phase at 0.2 uM after 24 hrs by PI staining based flow cytometry analysis (reference value: 52.8%); format: functional
HCT-116 [26] = assay: Induction of cell cycle arrest in human HCT-116 cells assessed as accumulation of cells at G2/M phase at 0.2 uM after 24 hrs by PI staining based flow cytometry analysis (reference value: 9.3%); format: functional
HCT-116 [27] = assay: Induction of cell cycle arrest in human HCT-116 cells assessed as accumulation of cells at G1 phase at 0.4 uM after 24 hrs by PI staining based flow cytometry analysis (reference value: 37.9%); format: functional
HCT-116 [28] = assay: Induction of cell cycle arrest in human HCT-116 cells assessed as accumulation of cells at S phase at 0.4 uM after 24 hrs by PI staining based flow cytometry analysis (reference value: 52.8%); format: functional
HCT-116 [29] = assay: Induction of cell cycle arrest in human HCT-116 cells assessed as accumulation of cells at G2/M phase at 0.4 uM after 24 hrs by PI staining based flow cytometry analysis (reference value: 9.3%); format: functional
HCT-116 [30] = assay: Induction of apoptosis in human HCT-116 cells assessed as viable cells at 0.2 uM incubated for 24 hrs by Annexin V-FITC/PI staining based flow cytometry analysis ( Rvb = 92.2%); format: functional; settings: read-out: Activity
HCT-116 [31] = assay: Induction of apoptosis in human HCT-116 cells assessed as early apoptotic cells at 0.2 uM incubated for 24 hrs by Annexin V-FITC/PI staining based flow cytometry analysis ( Rvb = 2.36%); format: functional
HCT-116 [32] = assay: Induction of apoptosis in human HCT-116 cells assessed as late apoptotic cells at 0.2 uM incubated for 24 hrs by Annexin V-FITC/PI staining based flow cytometry analysis ( Rvb = 5.32%); format: functional
HCT-116 [33] = assay: Induction of apoptosis in human HCT-116 cells assessed as necrotic cells at 0.2 uM incubated for 24 hrs by Annexin V-FITC/PI staining based flow cytometry analysis ( Rvb = 0.24%); format: functional
HCT-116 [34] = assay: Induction of apoptosis in human HCT-116 cells assessed as viable cells at 0.4 uM incubated for 24 hrs by Annexin V-FITC/PI staining based flow cytometry analysis ( Rvb = 92.2%); format: functional; settings: read-out: Activity
HCT-116 [35] = assay: Induction of apoptosis in human HCT-116 cells assessed as early apoptotic cells at 0.4 uM incubated for 24 hrs by Annexin V-FITC/PI staining based flow cytometry analysis ( Rvb = 2.36%); format: functional
HCT-116 [36] = assay: Induction of apoptosis in human HCT-116 cells assessed as late apoptotic cells at 0.4 uM incubated for 24 hrs by Annexin V-FITC/PI staining based flow cytometry analysis ( Rvb = 5.32%); format: functional
HCT-116 [37] = assay: Induction of apoptosis in human HCT-116 cells assessed as necrotic cells at 0.4 uM incubated for 24 hrs by Annexin V-FITC/PI staining based flow cytometry analysis ( Rvb = 0.24%); format: functional

T1 sequence (O15379 whole entry, looked up): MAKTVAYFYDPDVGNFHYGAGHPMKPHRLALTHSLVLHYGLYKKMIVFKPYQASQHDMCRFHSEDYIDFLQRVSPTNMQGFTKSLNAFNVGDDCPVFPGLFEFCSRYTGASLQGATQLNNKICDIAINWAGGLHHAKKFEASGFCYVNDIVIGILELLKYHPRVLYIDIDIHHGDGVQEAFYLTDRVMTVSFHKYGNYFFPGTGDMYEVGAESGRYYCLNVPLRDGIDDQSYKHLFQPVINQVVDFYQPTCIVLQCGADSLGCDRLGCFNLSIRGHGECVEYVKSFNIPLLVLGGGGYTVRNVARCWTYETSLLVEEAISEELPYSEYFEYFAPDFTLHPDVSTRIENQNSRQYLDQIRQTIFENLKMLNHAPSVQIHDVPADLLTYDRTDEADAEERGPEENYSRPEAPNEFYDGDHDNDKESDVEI
T1 sequence (Q13547 whole entry, looked up): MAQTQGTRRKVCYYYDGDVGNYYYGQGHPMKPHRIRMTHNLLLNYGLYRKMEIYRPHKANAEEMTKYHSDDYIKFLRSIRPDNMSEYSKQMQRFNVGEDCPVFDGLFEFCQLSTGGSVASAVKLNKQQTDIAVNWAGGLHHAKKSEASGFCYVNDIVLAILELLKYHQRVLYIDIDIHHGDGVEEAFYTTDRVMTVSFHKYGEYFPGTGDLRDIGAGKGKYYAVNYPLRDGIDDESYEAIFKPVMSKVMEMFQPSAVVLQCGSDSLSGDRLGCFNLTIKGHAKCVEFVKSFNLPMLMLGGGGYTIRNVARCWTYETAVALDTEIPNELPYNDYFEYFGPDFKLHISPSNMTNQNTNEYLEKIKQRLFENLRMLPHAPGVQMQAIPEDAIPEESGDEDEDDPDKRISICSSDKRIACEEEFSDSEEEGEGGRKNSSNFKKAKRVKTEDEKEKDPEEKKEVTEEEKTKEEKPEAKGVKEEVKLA
T1 sequence (Q92769 whole entry, looked up): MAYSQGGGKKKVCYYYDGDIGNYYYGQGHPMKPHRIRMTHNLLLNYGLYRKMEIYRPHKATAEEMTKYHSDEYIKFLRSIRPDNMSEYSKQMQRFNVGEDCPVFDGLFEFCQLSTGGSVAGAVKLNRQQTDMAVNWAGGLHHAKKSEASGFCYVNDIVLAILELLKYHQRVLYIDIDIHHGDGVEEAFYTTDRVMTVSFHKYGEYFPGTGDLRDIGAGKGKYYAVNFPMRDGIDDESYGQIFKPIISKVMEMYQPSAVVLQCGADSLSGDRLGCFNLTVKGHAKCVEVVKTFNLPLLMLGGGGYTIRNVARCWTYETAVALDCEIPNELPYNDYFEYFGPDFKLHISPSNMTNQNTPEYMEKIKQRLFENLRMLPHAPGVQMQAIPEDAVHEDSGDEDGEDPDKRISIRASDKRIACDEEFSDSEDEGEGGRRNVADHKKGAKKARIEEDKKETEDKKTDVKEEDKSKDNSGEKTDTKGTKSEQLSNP
T1 sequence (Q9BY41 whole entry, looked up): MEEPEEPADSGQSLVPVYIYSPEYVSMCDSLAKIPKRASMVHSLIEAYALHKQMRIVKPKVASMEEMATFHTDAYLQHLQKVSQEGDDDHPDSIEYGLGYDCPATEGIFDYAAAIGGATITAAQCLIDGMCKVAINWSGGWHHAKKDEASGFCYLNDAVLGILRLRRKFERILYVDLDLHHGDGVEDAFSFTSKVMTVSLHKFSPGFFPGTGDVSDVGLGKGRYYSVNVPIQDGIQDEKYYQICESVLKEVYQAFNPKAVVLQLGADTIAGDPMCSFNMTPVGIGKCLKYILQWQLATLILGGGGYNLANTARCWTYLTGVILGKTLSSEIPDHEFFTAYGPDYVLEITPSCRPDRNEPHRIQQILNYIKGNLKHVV
Histone deacetylase 1, sequence (Q13547 whole entry): as the sequence (Q13547 whole entry, looked up) above

IC50 (HCT-116 [1]): 3050 nM
inhibition [2]: Active
inhibition [3]: inactive
IC50 (Histone deacetylase 1): 26 nM
SMILES: O=C(NCCSSCCNC(=O)/C(Cc1ccc(O)c(Br)c1)=N/O)/C(Cc1ccc(O)c(Br)c1)=N/O [PSAMMAPLIN A]
Activity (HCT-116 [4]): 45.72%
Activity (HCT-116 [5]): 41.24%
Activity (HCT-116 [6]): 13.05%
Activity (HCT-116 [7]): 55.34%
Activity (HCT-116 [8]): 28.56%
Activity (HCT-116 [9]): 16.09%
viability at 2 µM (HCT-116 [10]): 74.8%
Activity (HCT-116 [11]): 9.74%
Activity (HCT-116 [12]): 14.8%
Activity (HCT-116 [13]): 0.67%
viability at 4 µM (HCT-116 [14]): 42.5%
Activity (HCT-116 [15]): 16.2%
Activity (HCT-116 [16]): 40.3%
Activity (HCT-116 [17]): 1.06%
inhibition in vivo at 10 mg/kg (HCT-116 [18]): 36.1%

IC50 (HCT-116 [1]): 290 nM
IC50 (NCI-H1581): 480 nM
inhibition [2]: Active
inhibition [3]: Active
inhibition [19]: Dose-Dependent Effect
inhibition [20]: Dose-Dependent Effect
SMILES: O=C(NCC[Se][Se]CCNC(=O)/C(Cc1ccc(Br)o1)=N/O)/C(Cc1ccc(Br)o1)=N/O
IC50 (EBC-1): 620 nM
Activity (HCT-116 [21]): 35.83%
Activity (HCT-116 [22]): 45.66%
Activity (HCT-116 [23]): 18.51%
Activity (HCT-116 [24]): 51.33%
Activity (HCT-116 [25]): 31.39%
Activity (HCT-116 [26]): 17.28%
Activity (HCT-116 [27]): 56.35%
Activity (HCT-116 [28]): 24.54%
Activity (HCT-116 [29]): 19.11%
viability at 0.2 µM (HCT-116 [30]): 80.6%
Activity (HCT-116 [31]): 11.4%
Activity (HCT-116 [32]): 18.2%
Activity (HCT-116 [33]): 0.001%
viability at 0.4 µM (HCT-116 [34]): 70.3%
Activity (HCT-116 [35]): 17.8%
Activity (HCT-116 [36]): 11.9%
Activity (HCT-116 [37]): 0%
